Data on 9 compounds can be found in US12319640B2, “Cyclic diones as herbicidal compounds” (SYNGENTA CROP PROTECTION AG, priority 2019, dated 2025).

Holding throughout (assay): Glasshouse herbicide test, pre- and post-emergence
Assay type in all cases: in vivo

For assay [1], the system named is Setaria faberi (SETFA). Particulars: 250 g/h, evaluated after 13 days, five-point scale; for percentage damage caused to the plant, SETFA POST: post-emergence; for percentage damage caused to the plant, SETFA PRE: pre-emergence. The procedure:
(§1) Seeds of a variety of test species are sown in standard soil in pots (Lolium perenne (LOLPE), Setaria faberi (SETFA), Alopecurus myosuroides (ALOMY), Echinochloa crus-galli (ECHCG), Avena fatua (AVEFA)). After cultivation for one day (pre-emergence) or after 8 days cultivation (post-emergence) under controlled conditions in a glasshouse (at 24/16° C., day/night; 14 hours light; 65% humidity), the plants are sprayed with an aqueous spray solution derived from the formulation of the technical active ingredient in acetone/water (50:50) solution containing 0.5% Tween 20 (polyoxyethelyene sorbitan monolaurate, CAS RN 9005-64-5). Compounds are applied at 250 g/h. The test plants are then grown in a glasshouse under controlled conditions in a glasshouse (at 24/16° C., day/night; 14 hours light; 65% humidity) and watered twice daily. After 13 days for pre and post-emergence, the test is evaluated for the percentage damage caused to the plant. The biological activities are shown in the following table on a five-point scale (5=80-100%; 4=60-79%; 3=40-59%; 2=20-39%; 1=0-19%).

For assay [2], the system named is Alopecurus myosuroides (ALOMY). Particulars: 250 g/h, evaluated after 13 days, five-point scale; for percentage damage caused to the plant, ALOMY POST: post-emergence; for percentage damage caused to the plant, ALOMY PRE: pre-emergence. The procedure:
as §1

The subject of assay [3] is Echinochloa crus-galli (ECHCG). To be noted: 250 g/h, evaluated after 13 days, five-point scale; for percentage damage caused to the plant, ECHCG POST: post-emergence; for percentage damage caused to the plant, ECHCG PRE: pre-emergence. The procedure: as §1
In assay [4] the test system is Avena fatua (AVEFA). Particulars: 250 g/h, evaluated after 13 days, five-point scale; for percentage damage caused to the plant, AVEFA POST: post-emergence; for percentage damage caused to the plant, AVEFA PRE: pre-emergence. The protocol:
as §1

Assay [5] deals with Lolium perenne (LOLPE). To be noted: 250 g/h, evaluated after 13 days, five-point scale; for percentage damage caused to the plant, LOLPE POST: post-emergence; for percentage damage caused to the plant, LOLPE PRE: pre-emergence. The procedure: as §1

The structures appear in SMILES notation.

In the case of `CC#Cc1cc(C)c(C2C(=O)CC3(CCC(C(=O)NC(C)(C)C)CC3)CC2=O)c(C)c1` (stereo not drawn) [Compound 1.013], in assay [1], the “percentage damage caused to the plant, SETFA POST” value is given as 5 (5=80-100%) and the “percentage damage caused to the plant, SETFA PRE” value was 5 (5=80-100%). Further, in assay [2], the “percentage damage caused to the plant, ALOMY POST” value is 5 (5=80-100%) and the “percentage damage caused to the plant, ALOMY PRE” value was 3 (3=40-59%). In addition, in assay [3], the “percentage damage caused to the plant, ECHCG POST” value was 5 (5=80-100%) and the “percentage damage caused to the plant, ECHCG PRE” value is listed as 5 (5=80-100%). Moreover, in assay [4], the “percentage damage caused to the plant, AVEFA POST” value is reported as 4 (4=60-79%) and the “percentage damage caused to the plant, AVEFA PRE” value is reported as 1 (1=0-19%). In addition, in assay [5], the “percentage damage caused to the plant, LOLPE POST” value is 5 (5=80-100%) and the “percentage damage caused to the plant, LOLPE PRE” value is 5 (5=80-100%).
For `CC#Cc1cc(C)c(C2C(=O)CC3(CCC(C(=O)NC(C)(C#N)CC)CC3)CC2=O)c(C)c1` (stereo not drawn) [Compound 1.014], in assay [1], the “percentage damage caused to the plant, SETFA POST” value is 5 (5=80-100%) and the “percentage damage caused to the plant, SETFA PRE” value is 5 (5=80-100%). Moreover, in assay [2], the “percentage damage caused to the plant, ALOMY POST” value is on record as 5 (5=80-100%) and the “percentage damage caused to the plant, ALOMY PRE” value was 3 (3=40-59%). Besides, in assay [3], the “percentage damage caused to the plant, ECHCG POST” value is on record as 5 (5=80-100%) and the “percentage damage caused to the plant, ECHCG PRE” value is 5 (5=80-100%). Also, in assay [4], the “percentage damage caused to the plant, AVEFA POST” value was 5 (5=80-100%) and the “percentage damage caused to the plant, AVEFA PRE” value is listed as 2 (2=20-39%). Also, in assay [5], the “percentage damage caused to the plant, LOLPE POST” value is 5 (5=80-100%) and the “percentage damage caused to the plant, LOLPE PRE” value is on record as 5 (5=80-100%).
As for `CC#Cc1cc(C)c(C2C(=O)CC3(CCC(C(=O)NC)CC3)CC2=O)c(OC)c1` (stereo not drawn) [Compound 1.016], in assay [1], the “percentage damage caused to the plant, SETFA POST” value was 5 (5=80-100%) and the “percentage damage caused to the plant, SETFA PRE” value is given as 5 (5=80-100%). For the same compound, in assay [2], the “percentage damage caused to the plant, ALOMY POST” value is listed as 5 (5=80-100%) and the “percentage damage caused to the plant, ALOMY PRE” value is given as 5 (5=80-100%). Moreover, in assay [3], the “percentage damage caused to the plant, ECHCG POST” value is on record as 5 (5=80-100%) and the “percentage damage caused to the plant, ECHCG PRE” value is 5 (5=80-100%). In addition, in assay [4], the “percentage damage caused to the plant, AVEFA POST” value was 5 (5=80-100%) and the “percentage damage caused to the plant, AVEFA PRE” value was 5 (5=80-100%). Also, in assay [5], the “percentage damage caused to the plant, LOLPE POST” value is recorded as 5 (5=80-100%) and the “percentage damage caused to the plant, LOLPE PRE” value is recorded as 5 (5=80-100%).
Consider `CC#Cc1cc(C)c(C2C(=O)CC3(CC2=O)CC(C(=O)NC)C3)c(C)c1` (stereo not drawn) [Compound 1.017], for which, in assay [1], the “percentage damage caused to the plant, SETFA POST” value is listed as 5 (5=80-100%) and the “percentage damage caused to the plant, SETFA PRE” value is 5 (5=80-100%). Further, in assay [2], the “percentage damage caused to the plant, ALOMY POST” value is given as 5 (5=80-100%) and the “percentage damage caused to the plant, ALOMY PRE” value was 5 (5=80-100%). In addition, in assay [3], the “percentage damage caused to the plant, ECHCG POST” value is given as 5 (5=80-100%) and the “percentage damage caused to the plant, ECHCG PRE” value is listed as 5 (5=80-100%). In assay [4], the “percentage damage caused to the plant, AVEFA POST” value is on record as 5 (5=80-100%) and the “percentage damage caused to the plant, AVEFA PRE” value was 5 (5=80-100%). For the same compound, in assay [5], the “percentage damage caused to the plant, LOLPE POST” value is 5 (5=80-100%) and the “percentage damage caused to the plant, LOLPE PRE” value is recorded as 5 (5=80-100%).
For `CC#Cc1cc(C)c(C2C(=O)CC3(CCC(C(=O)NC)C3)CC2=O)c(C)c1` (stereo not drawn) [Compound 1.018], in assay [1], the “percentage damage caused to the plant, SETFA POST” value is 5 (5=80-100%) and the “percentage damage caused to the plant, SETFA PRE” value is recorded as 5 (5=80-100%). In assay [2], the “percentage damage caused to the plant, ALOMY POST” value was 5 (5=80-100%) and the “percentage damage caused to the plant, ALOMY PRE” value is given as 5 (5=80-100%). In assay [3], the “percentage damage caused to the plant, ECHCG POST” value is reported as 5 (5=80-100%) and the “percentage damage caused to the plant, ECHCG PRE” value was 5 (5=80-100%). In addition, in assay [4], the “percentage damage caused to the plant, AVEFA POST” value was 5 (5=80-100%) and the “percentage damage caused to the plant, AVEFA PRE” value is 5 (5=80-100%). Further, in assay [5], the “percentage damage caused to the plant, LOLPE POST” value was 5 (5=80-100%) and the “percentage damage caused to the plant, LOLPE PRE” value is reported as 5 (5=80-100%).
For `CNC(=O)C1CCC2(CC1)CC(=O)C(c1c(C)cc(-c3ccc(C#N)cn3)cc1C)C(=O)C2` (stereo not drawn) [Compound 1.020], in assay [1], the “percentage damage caused to the plant, SETFA POST” value is on record as 5 (5=80-100%) and the “percentage damage caused to the plant, SETFA PRE” value is recorded as 5 (5=80-100%). Besides, in assay [2], the “percentage damage caused to the plant, ALOMY POST” value is given as 5 (5=80-100%) and the “percentage damage caused to the plant, ALOMY PRE” value is on record as 5 (5=80-100%). In assay [3], the “percentage damage caused to the plant, ECHCG POST” value is recorded as 5 (5=80-100%) and the “percentage damage caused to the plant, ECHCG PRE” value is on record as 5 (5=80-100%). Besides, in assay [4], the “percentage damage caused to the plant, AVEFA POST” value is 5 (5=80-100%) and the “percentage damage caused to the plant, AVEFA PRE” value is 5 (5=80-100%). Further, in assay [5], the “percentage damage caused to the plant, LOLPE POST” value is on record as 5 (5=80-100%) and the “percentage damage caused to the plant, LOLPE PRE” value is reported as 5 (5=80-100%).
With `Cc1cc(-c2ccc(C#N)cn2)cc(C)c1C1C(=O)CC2(CCC(C(=O)N(C)C)CC2)CC1=O` (stereo not drawn) [Compound 1.021], in assay [1], the “percentage damage caused to the plant, SETFA POST” value is 5 (5=80-100%) and the “percentage damage caused to the plant, SETFA PRE” value was 4 (4=60-79%). For the same compound, in assay [2], the “percentage damage caused to the plant, ALOMY POST” value is on record as 5 (5=80-100%) and the “percentage damage caused to the plant, ALOMY PRE” value is 4 (4=60-79%). In assay [3], the “percentage damage caused to the plant, ECHCG POST” value was 5 (5=80-100%) and the “percentage damage caused to the plant, ECHCG PRE” value is listed as 5 (5=80-100%). Moreover, in assay [4], the “percentage damage caused to the plant, AVEFA POST” value is reported as 5 (5=80-100%) and the “percentage damage caused to the plant, AVEFA PRE” value is given as 2 (2=20-39%). In assay [5], the “percentage damage caused to the plant, LOLPE POST” value was 5 (5=80-100%) and the “percentage damage caused to the plant, LOLPE PRE” value is reported as 4 (4=60-79%).
As to `CNC(=O)C1CCC2(CC1)CC(=O)C(c1c(C)cc(-c3ccc(Cl)cn3)cc1C)C(=O)C2` (stereo not drawn) [Compound 1.022], in assay [1], the “percentage damage caused to the plant, SETFA POST” value is recorded as 5 (5=80-100%) and the “percentage damage caused to the plant, SETFA PRE” value is on record as 5 (5=80-100%). For the same compound, in assay [2], the “percentage damage caused to the plant, ALOMY POST” value is listed as 5 (5=80-100%) and the “percentage damage caused to the plant, ALOMY PRE” value is 5 (5=80-100%). Moreover, in assay [3], the “percentage damage caused to the plant, ECHCG POST” value was 5 (5=80-100%) and the “percentage damage caused to the plant, ECHCG PRE” value is reported as 5 (5=80-100%). Moreover, in assay [4], the “percentage damage caused to the plant, AVEFA POST” value is 5 (5=80-100%) and the “percentage damage caused to the plant, AVEFA PRE” value is on record as 5 (5=80-100%). Further, in assay [5], the “percentage damage caused to the plant, LOLPE POST” value is listed as 5 (5=80-100%) and the “percentage damage caused to the plant, LOLPE PRE” value was 5 (5=80-100%).
In the case of `CNC(=O)C1CCC2(CC1)CC(=O)C(c1c(C)cc(-c3ncc(F)cc3F)cc1C)C(=O)C2` (stereo not drawn) [Compound 1.023], in assay [1], the “percentage damage caused to the plant, SETFA POST” value is recorded as 5 (5=80-100%) and the “percentage damage caused to the plant, SETFA PRE” value is 5 (5=80-100%). In assay [2], the “percentage damage caused to the plant, ALOMY POST” value is given as 5 (5=80-100%) and the “percentage damage caused to the plant, ALOMY PRE” value is 5 (5=80-100%). In assay [3], the “percentage damage caused to the plant, ECHCG POST” value is listed as 5 (5=80-100%) and the “percentage damage caused to the plant, ECHCG PRE” value was 5 (5=80-100%). In assay [4], the “percentage damage caused to the plant, AVEFA POST” value is 5 (5=80-100%) and the “percentage damage caused to the plant, AVEFA PRE” value was 5 (5=80-100%). For the same compound, in assay [5], the “percentage damage caused to the plant, LOLPE POST” value was 5 (5=80-100%) and the “percentage damage caused to the plant, LOLPE PRE” value is reported as 5 (5=80-100%).
